Laboratory results taken from US20250243180A1, “TARGETED PROTEIN DEGRADATION” (Monte Rosa Therapeutics AG, priority 2023, published 2025).
Where two headings read alike, the source gives them in different places.

What was measured:
CRBN-DDB1 = CRBN-DDB1 (Homo sapiens (Human), UniProt Q96SW2); experiment: Compound binding to CRBN by HTRF assay
Method in brief: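 HTRF displacement of Cy5-thalidomide probe (100 nM) from His-tagged CRBN-DDB1 (2.5 nM) with anti-His terbium cryptate, in HEPES/NaCl/TCEP/EDTA/Tween20 buffer; 11-point 1:3 dilution series, 30 min at ambient temperature. Signal (665/620 nm) normalized to lenalidomide and DMSO controls; EC50 fitted, Ki by Cheng-Prusoff from geometric mean EC50.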

NEK7 = NEK7 (Homo sapiens (Human), UniProt Q8TDX7+Q96SW2); experiment: NEK7 NanoBiT degradation assay in Cal51 NEK7 NanoBiT cell line; format: cell-based; details: Cal51 NEK7 NanoBiT cells, 24 hours; for Dmax: CAL-51
Sequence of NEK7 (Q8TDX7 whole entry): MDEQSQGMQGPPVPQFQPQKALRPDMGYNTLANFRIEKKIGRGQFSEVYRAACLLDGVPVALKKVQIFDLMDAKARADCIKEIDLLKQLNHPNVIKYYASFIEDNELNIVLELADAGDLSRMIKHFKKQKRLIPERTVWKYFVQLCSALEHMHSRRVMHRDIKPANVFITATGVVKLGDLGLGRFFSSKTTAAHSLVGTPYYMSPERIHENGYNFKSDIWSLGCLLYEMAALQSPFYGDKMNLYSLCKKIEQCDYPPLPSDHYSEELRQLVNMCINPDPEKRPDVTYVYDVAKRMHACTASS
Sequence of NEK7 (Q96SW2 whole entry): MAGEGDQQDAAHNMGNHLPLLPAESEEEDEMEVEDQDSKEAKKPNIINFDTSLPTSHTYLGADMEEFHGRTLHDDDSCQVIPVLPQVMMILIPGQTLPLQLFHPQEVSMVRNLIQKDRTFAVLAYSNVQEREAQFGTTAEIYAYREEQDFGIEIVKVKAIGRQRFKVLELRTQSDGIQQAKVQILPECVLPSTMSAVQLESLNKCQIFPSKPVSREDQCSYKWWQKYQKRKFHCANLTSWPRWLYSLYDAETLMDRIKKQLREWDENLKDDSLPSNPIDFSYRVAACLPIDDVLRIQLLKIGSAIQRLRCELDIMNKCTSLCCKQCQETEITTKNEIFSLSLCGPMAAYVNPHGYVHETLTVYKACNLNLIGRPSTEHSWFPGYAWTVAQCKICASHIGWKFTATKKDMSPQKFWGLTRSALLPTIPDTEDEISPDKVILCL
Sequence of NEK7 (Q16531 2-1140 partner): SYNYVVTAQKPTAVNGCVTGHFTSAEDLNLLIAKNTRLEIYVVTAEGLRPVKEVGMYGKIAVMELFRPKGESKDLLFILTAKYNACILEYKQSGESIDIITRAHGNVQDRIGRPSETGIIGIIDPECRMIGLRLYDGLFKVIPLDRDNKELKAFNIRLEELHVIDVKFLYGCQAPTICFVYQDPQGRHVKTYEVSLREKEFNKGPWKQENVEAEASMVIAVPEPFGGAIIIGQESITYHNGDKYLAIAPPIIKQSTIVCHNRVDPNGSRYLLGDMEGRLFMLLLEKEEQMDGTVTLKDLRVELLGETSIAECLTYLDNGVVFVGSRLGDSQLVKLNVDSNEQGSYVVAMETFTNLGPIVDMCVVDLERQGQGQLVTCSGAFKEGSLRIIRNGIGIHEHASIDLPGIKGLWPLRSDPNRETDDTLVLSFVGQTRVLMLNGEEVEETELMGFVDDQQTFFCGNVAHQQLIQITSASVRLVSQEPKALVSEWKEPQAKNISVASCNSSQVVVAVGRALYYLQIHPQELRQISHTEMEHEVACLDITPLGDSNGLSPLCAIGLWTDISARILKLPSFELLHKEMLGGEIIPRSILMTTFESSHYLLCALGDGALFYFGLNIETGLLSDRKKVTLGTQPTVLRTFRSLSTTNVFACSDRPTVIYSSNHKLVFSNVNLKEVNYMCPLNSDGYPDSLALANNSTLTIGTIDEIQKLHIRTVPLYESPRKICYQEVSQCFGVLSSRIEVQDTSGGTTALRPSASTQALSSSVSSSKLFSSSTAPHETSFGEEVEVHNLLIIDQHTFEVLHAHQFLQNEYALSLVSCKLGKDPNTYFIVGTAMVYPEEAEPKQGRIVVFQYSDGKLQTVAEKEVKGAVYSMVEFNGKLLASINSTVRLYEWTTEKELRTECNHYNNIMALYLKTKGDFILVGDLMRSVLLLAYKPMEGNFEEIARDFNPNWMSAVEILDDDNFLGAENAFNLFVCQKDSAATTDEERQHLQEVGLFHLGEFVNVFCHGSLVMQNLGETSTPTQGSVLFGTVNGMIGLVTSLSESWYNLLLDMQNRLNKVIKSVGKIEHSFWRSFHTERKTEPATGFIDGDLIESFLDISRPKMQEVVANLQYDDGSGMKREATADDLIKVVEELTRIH
Method in brief: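 Cal51 cells with CRISPR knock-in HiBiT-tagged endogenous NEK7 plus stable LgBiT, in live-cell Endurazine medium, seeded 16 h before dosing. Compounds at final 1 μM to 0.05 nM for 24 h at 37 °C, then luminescence read. Response normalized to plate controls and fitted with a 4-parameter logistic giving EC50.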

IL-1β release = IL-1β release in human monocyte-derived macrophages, LPS/nigericin stimulation; format: cell-based; details: Macrophage, 24 h pre-treatment, LPS 3 h then 10 μM nigericin 1 h, read-out: IL-1b IC50 (NIG)
Protocol: (§1) Human monocytes were enriched and isolated from a buffy coat of healthy donor whole blood with a RosetteSep™ Human Monocyte Enrichment Cocktail (Cat.No. 15068, StemCell) and Ficoll-Plaque PLUS (Cat.No. H8889, Sigma). Monocytes were differentiated into macrophages by treatment with 100 ng/mL M-CSF for 6 days at 37° C., 5% CO2. Differentiated macrophages were seeded overnight (50,000 cells/well) in 100 µL of medium in a 96-well, white-bottom plate at 37° C., 5% CO2. Cells were treated with a concentration range of MGD for 24 hours prior to stimulation with nigericin. Macrophages were primed with […] LPS for 3 h followed by 1 h stimulation with 10 μM nigericin. Media of stimulated macrophages were collected and assayed for caspase 1 activity directly (Promega G9951), according to manufacturer's instructions. For IL-1β release assay, media of stimulated macrophages were collected and stored at −20° C., then thawed at 4° C. before assaying for IL-1β activity (Promega W6011), according to manufacturer's instructions.

Caspase-1 activity = Caspase-1 activity in human monocyte-derived macrophages, LPS/nigericin stimulation; format: cell-based; details: Macrophage, 24 h pre-treatment, LPS 3 h then 10 μM nigericin 1 h, read-out: Caspase-1 IC50 (NIG)
Protocol: as §1

[1] = NEK7 degradation, read-out: NanoBiT Dmax
[2] = NEK7 degradation, read-out: NanoBiT DC50

Sequence of CRBN-DDB1 (Q96SW2 whole entry): as the sequence (Q96SW2 whole entry) above
Sequence of CRBN-DDB1 (Q16531 whole entry partner): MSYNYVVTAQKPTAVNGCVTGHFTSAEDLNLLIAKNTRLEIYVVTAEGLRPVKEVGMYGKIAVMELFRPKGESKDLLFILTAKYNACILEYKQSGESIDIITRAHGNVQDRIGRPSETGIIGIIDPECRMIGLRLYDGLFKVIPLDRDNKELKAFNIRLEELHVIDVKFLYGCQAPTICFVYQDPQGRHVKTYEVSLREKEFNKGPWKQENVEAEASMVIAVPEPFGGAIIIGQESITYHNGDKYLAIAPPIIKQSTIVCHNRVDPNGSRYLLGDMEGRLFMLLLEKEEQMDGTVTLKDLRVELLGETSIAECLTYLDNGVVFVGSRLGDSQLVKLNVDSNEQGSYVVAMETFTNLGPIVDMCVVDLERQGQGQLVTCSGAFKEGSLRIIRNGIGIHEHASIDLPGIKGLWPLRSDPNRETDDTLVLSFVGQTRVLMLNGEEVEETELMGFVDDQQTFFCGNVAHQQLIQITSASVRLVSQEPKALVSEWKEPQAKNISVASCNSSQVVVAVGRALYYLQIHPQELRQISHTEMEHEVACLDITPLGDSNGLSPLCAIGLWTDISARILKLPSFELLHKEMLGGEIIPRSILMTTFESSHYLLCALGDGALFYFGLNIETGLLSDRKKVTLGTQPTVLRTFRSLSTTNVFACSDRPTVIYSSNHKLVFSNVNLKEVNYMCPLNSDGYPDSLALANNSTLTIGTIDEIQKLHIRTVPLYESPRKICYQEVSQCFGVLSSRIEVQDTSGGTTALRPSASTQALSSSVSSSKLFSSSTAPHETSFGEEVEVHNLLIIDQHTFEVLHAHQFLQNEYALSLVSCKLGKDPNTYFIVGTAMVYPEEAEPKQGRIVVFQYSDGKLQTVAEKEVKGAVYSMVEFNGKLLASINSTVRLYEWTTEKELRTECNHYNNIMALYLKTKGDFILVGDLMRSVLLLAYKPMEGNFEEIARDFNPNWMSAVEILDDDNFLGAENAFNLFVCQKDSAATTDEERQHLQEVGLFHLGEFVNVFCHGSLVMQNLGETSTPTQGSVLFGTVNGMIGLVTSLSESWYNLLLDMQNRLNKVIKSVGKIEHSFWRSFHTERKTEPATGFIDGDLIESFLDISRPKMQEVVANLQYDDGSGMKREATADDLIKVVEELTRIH

CC(C)(C(=O)NCc1cc(Cl)c(C2CCC(=O)NC2=O)c(Cl)c1)c1ccc2ocnc2c1 (centres unmarked) [Compound 17]
EC50 (CRBN-DDB1): 20 nM
EC50 (CRBN-DDB1; HTRF class, Cereblon binding): ≤ 100 nM
Dmax (NEK7; read-out: NEK7 NanoBiT Dmax): 98%
Dmax (NEK7; [1]): > 75%
DC50 (NEK7; read-out: NEK7 NanoBiT DC50): 0.1 nM
DC50 (NEK7; [2]): ≤ 100 nM
IC50 (IL-1β release): 0.03 nM

CC(C)(C(=O)NCc1cc(Cl)c(C2CCC(=O)NC2=O)c(Cl)c1)c1ncccn1 (centres unmarked) [Compound 34]
EC50 (CRBN-DDB1): 140 nM
EC50 (CRBN-DDB1; HTRF class, Cereblon binding): 100 to 1000 nM
IC50 (Caspase-1 activity): 7.25 nM
Dmax (NEK7; read-out: NEK7 NanoBiT Dmax): 78%
Dmax (NEK7; [1]): > 75%
DC50 (NEK7; read-out: NEK7 NanoBiT DC50): 28 nM
DC50 (NEK7; [2]): ≤ 100 nM
IC50 (IL-1β release): 7.36 nM

CC(C)(C(=O)NCc1cc(Cl)c(C2CCC(=O)NC2=O)c(Cl)c1)c1ccccc1 (centres unmarked) [Compound 37, N-(3,5-dichloro-4-(2,6-dioxopiperidin-3-yl)benzyl)-2-methyl-2-phenylpropanamide]
EC50 (CRBN-DDB1): 30 nM
EC50 (CRBN-DDB1; HTRF class, Cereblon binding): ≤ 100 nM
IC50 (Caspase-1 activity): 0.14 nM
Dmax (NEK7; read-out: NEK7 NanoBiT Dmax): 97%
Dmax (NEK7; [1]): > 75%
DC50 (NEK7; read-out: NEK7 NanoBiT DC50): 1 nM
DC50 (NEK7; [2]): ≤ 100 nM
IC50 (IL-1β release): 0.31 nM

CC(C)(C(=O)NCc1cc(Cl)c(C2CCC(=O)NC2=O)c(Cl)c1)c1ccc(S(N)(=O)=O)cc1 (centres unmarked) [Compound 76]
EC50 (CRBN-DDB1): 70 nM
EC50 (CRBN-DDB1; HTRF class, Cereblon binding): ≤ 100 nM
IC50 (Caspase-1 activity): 0.49 nM
Dmax (NEK7; read-out: NEK7 NanoBiT Dmax): 97%
Dmax (NEK7; [1]): > 75%
DC50 (NEK7; read-out: NEK7 NanoBiT DC50): 2 nM
DC50 (NEK7; [2]): ≤ 100 nM
IC50 (IL-1β release): 0.83 nM

CC(C)(C(=O)NCc1cc(Cl)c(C2CCC(=O)NC2=O)c(Cl)c1)c1ccnc(F)c1 (centres unmarked) [Compound 93]
EC50 (CRBN-DDB1): 70 nM
EC50 (CRBN-DDB1; HTRF class, Cereblon binding): ≤ 100 nM
IC50 (Caspase-1 activity): 0.45 nM
Dmax (NEK7; read-out: NEK7 NanoBiT Dmax): 92%
Dmax (NEK7; [1]): > 75%
DC50 (NEK7; read-out: NEK7 NanoBiT DC50): 4 nM
DC50 (NEK7; [2]): ≤ 100 nM
IC50 (IL-1β release): 0.9 nM

CC(C)(C(=O)NCc1cc(Cl)c(C2CCC(=O)NC2=O)c(Cl)c1)c1c(F)cccc1F (centres unmarked) [Compound 94]
EC50 (CRBN-DDB1): 70 nM
EC50 (CRBN-DDB1; HTRF class, Cereblon binding): ≤ 100 nM
Dmax (NEK7; read-out: NEK7 NanoBiT Dmax): 98%
Dmax (NEK7; [1]): > 75%
DC50 (NEK7; read-out: NEK7 NanoBiT DC50): 1 nM
DC50 (NEK7; [2]): ≤ 100 nM
IC50 (IL-1β release): 0.1 nM

Cc1cc(C(C)(C)C(=O)NCc2cc(Cl)c(C3CCC(=O)NC3=O)c(Cl)c2)ccn1 (centres unmarked) [Compound 95]
EC50 (CRBN-DDB1): 100 nM
EC50 (CRBN-DDB1; HTRF class, Cereblon binding): ≤ 100 nM
IC50 (Caspase-1 activity): 0.82 nM
Dmax (NEK7; read-out: NEK7 NanoBiT Dmax): 92%
Dmax (NEK7; [1]): > 75%
DC50 (NEK7; read-out: NEK7 NanoBiT DC50): 6 nM
DC50 (NEK7; [2]): ≤ 100 nM
IC50 (IL-1β release): 1.21 nM

CC(C)(C(=O)NCc1cc(Cl)c(C2CCC(=O)NC2=O)c(Cl)c1)c1ccc(F)cc1 (centres unmarked) [Compound 96]
EC50 (CRBN-DDB1): 80 nM
EC50 (CRBN-DDB1; HTRF class, Cereblon binding): ≤ 100 nM
IC50 (Caspase-1 activity): 0.13 nM
Dmax (NEK7; read-out: NEK7 NanoBiT Dmax): 97%
Dmax (NEK7; [1]): > 75%
DC50 (NEK7; read-out: NEK7 NanoBiT DC50): 1 nM
DC50 (NEK7; [2]): ≤ 100 nM
IC50 (IL-1β release): 0.2 nM

CC(C)(C(=O)NCc1cc(Cl)c(C2CCC(=O)NC2=O)c(Cl)c1)c1ccnc(C(F)(F)F)c1 (centres unmarked) [Compound 97]
EC50 (CRBN-DDB1): 170 nM
EC50 (CRBN-DDB1; HTRF class, Cereblon binding): 100 to 1000 nM
IC50 (Caspase-1 activity): 5.84 nM
Dmax (NEK7; read-out: NEK7 NanoBiT Dmax): 76%
Dmax (NEK7; [1]): > 75%
DC50 (NEK7; read-out: NEK7 NanoBiT DC50): 50 nM
DC50 (NEK7; [2]): ≤ 100 nM
IC50 (IL-1β release): 5.23 nM

CC(C)(C(=O)NCc1cc(Cl)c(C2CCC(=O)NC2=O)c(Cl)c1)c1ccncc1 (centres unmarked) [Compound 108]
EC50 (CRBN-DDB1): 80 nM
EC50 (CRBN-DDB1; HTRF class, Cereblon binding): ≤ 100 nM
IC50 (Caspase-1 activity): 0.54 nM
Dmax (NEK7; read-out: NEK7 NanoBiT Dmax): 92%
Dmax (NEK7; [1]): > 75%
DC50 (NEK7; read-out: NEK7 NanoBiT DC50): 3 nM
DC50 (NEK7; [2]): ≤ 100 nM
IC50 (IL-1β release): 0.41 nM

Cc1nnc(C(C)(C)C(=O)NCc2cc(Cl)c(C3CCC(=O)NC3=O)c(Cl)c2)o1 (centres unmarked) [Compound 110]
EC50 (CRBN-DDB1): 320 nM
EC50 (CRBN-DDB1; HTRF class, Cereblon binding): 100 to 1000 nM
IC50 (Caspase-1 activity): 11.2 nM
Dmax (NEK7; read-out: NEK7 NanoBiT Dmax): 76%
Dmax (NEK7; [1]): > 75%
DC50 (NEK7; read-out: NEK7 NanoBiT DC50): 50 nM
DC50 (NEK7; [2]): ≤ 100 nM
IC50 (IL-1β release): 9.87 nM
